The text below walks through data of patent US7495147B2, “Neuregulin-1 transgenic mouse and methods of use” (deCODE genetics ehf., priority 2000, dated 2009).

The experiment relates to NRG1TM hypomorphic mice. Kind of experiment: open field test of locomotor activity in NRG1TM hypomorphic mice and litter-mate controls. It is filed as in vivo, mouse. As to conditions: litter-mate control (wild-type) mice; clozapine 1 mg/kg i.p. 25 min prior to testing. On the procedure: Male NRG1TM hypomorphs, ErbB4 hypomorphs and litter-mate controls for each line were bred at Charles River Laboratories USA by crossing to a C57B16 background. They were shipped to the testing laboratory at PsychoGenics Inc. NY, USA (six weeks prior to behavioral testing) where they were housed in groups of 3-5 related mice per cage. The open field study was conducted when the male mice were 5 to 6 months of age. Group housed mice were brought into the experimental room and allowed to acclimate for one hour prior to testing. Each mouse was placed for 30 minutes in a square open field box (17×17×12 inch). Up to eight animals were tested at one time, one animal in each of eight arenas, under low lighting conditions (provided by a 15 watt red lamp). The automated infrared beam array system measured locomotion in the center and periphery of the test arena. Activity data were collected in 5 min intervals over the 30 min open field session and analyzed with a series of repeated measures analysis of variance (ANOVA) with session interval as a within-subject factor and genotype as a between-subject factor. Clozapine (1 mg/kg in 1% Tween 20, pH 6.0) was injected intraperitoneally (i.p.) 25 min before behavioral testing. Total activity data from the study with clozapine were analyzed with a two-tailed, Student's t-test. Naïve mice were used for these experiments. […]

In the case of `CN1CCN(C2=Nc3cc(Cl)ccc3Nc3ccccc32)CC1` [Clozapine, clozapine], the “open field activity of litter-mate control mice” value is reported as “no effect”.
